Experimental data taken from ChEMBL document CHEMBL1201862, “PubChem BioAssay data set” (2004).
One block for each compound: values may come before it. Active and inactive are the calls of the source.

Assays:
[1] = target: Photoreceptor-specific nuclear receptor (Homo sapiens, UniProt Q9Y5X4); format: functional, cell-based;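 also: CHO-S cells with Gal4-NCOR and VP16-NR2E3 two-hybrid luciferase reporter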
[2] = target: T1, Sentrin-specific protease 1 (Homo sapiens, UniProt Q9P0U3); experiment: Dose response confirmation of small molecule inhibitors of the catalytic domain of the SUMO protease, SENP1 in a FRET assay.; format: functional; conditions: read-out: IC50_Mean
[3] = target: T1, Sentrin-specific protease 1; experiment: potency of human SENP1 inhibitors, dose response, biochemical, kinetic FRET (AID 651697); format: functional; conditions: read-out: IC50_Mean
[4] = target: T2, Zinc finger protein mex-5 (Caenorhabditis elegans, UniProt Q9XUB2); experiment: MEX-5/TCR-2 RNA interaction inhibitors, dose response, biochemical, C. elegans, fluorescence polarization (AID 1960)
T2 sequence (Q9XUB2 whole entry): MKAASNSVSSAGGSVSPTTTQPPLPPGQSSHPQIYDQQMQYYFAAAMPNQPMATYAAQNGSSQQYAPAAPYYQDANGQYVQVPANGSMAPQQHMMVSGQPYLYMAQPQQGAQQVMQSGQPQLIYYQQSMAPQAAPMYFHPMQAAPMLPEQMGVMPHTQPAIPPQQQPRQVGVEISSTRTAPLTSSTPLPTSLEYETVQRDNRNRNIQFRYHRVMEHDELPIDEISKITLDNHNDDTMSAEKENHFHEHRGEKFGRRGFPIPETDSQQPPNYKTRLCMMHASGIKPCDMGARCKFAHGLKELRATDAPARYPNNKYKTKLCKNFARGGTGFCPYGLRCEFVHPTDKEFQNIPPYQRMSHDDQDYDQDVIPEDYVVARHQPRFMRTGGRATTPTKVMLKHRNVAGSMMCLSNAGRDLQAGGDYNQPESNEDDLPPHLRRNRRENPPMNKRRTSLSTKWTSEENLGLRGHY

[5] = target: T3, RNA-binding protein pos-1 (Caenorhabditis elegans, UniProt G5EF15); experiment: inhibitors of POS-1/mex-3 RNA binding, dose response, biochemical, fluorescence polarization (AID 1964);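 also: purified POS-1 fused to maltose binding protein made in E. coli; potency of compounds blocking POS-1 binding to fluorescent RNA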
T3 sequence (G5EF15 whole entry): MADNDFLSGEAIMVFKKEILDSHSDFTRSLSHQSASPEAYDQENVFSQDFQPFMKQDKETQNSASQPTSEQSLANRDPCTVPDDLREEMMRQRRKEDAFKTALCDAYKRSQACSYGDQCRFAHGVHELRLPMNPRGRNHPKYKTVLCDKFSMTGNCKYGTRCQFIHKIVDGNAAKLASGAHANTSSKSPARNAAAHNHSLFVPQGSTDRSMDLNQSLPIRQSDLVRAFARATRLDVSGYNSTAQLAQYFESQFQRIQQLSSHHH

[6] = target: T4, Tyrosine-protein phosphatase non-receptor type 22 (Homo sapiens, UniProt Q9Y2R2); experiment: PTPN22 phosphatase inhibition, dose response, selectivity assay for STEP inhibitor project, biochemical (AID 624241); format: functional
T4 sequence (Q9Y2R2 whole entry): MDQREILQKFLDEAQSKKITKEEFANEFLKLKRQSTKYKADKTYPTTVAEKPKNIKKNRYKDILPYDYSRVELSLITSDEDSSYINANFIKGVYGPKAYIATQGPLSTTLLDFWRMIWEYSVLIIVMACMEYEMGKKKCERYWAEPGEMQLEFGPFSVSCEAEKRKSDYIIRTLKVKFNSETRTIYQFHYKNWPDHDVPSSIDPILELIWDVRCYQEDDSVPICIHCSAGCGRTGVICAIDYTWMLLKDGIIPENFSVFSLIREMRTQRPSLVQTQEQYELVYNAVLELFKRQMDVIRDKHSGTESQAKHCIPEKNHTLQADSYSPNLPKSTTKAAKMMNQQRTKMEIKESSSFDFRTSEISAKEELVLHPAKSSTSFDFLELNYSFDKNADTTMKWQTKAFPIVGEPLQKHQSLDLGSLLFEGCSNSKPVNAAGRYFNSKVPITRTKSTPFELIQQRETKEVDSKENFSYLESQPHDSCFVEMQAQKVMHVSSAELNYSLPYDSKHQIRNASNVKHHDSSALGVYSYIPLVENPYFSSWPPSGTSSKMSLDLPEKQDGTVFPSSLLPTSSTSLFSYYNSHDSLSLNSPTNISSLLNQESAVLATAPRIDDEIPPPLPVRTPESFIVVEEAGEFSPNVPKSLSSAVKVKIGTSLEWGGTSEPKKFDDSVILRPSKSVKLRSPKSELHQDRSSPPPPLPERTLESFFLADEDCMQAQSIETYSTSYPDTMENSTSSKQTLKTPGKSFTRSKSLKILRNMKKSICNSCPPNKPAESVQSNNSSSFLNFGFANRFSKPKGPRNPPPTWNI

[7] = target: Dual specificity protein phosphatase 3 (Homo sapiens, UniProt P51452); experiment: VHR phosphatase inhibition, dose response, selectivity assay for STEP inhibitor project, biochemical (AID 602374); format: functional; conditions: read-out: IC50_Mean
[8] = target: Tyrosine-protein phosphatase non-receptor type 5 (Homo sapiens, UniProt P54829); experiment: STEP phosphatase inhibitors, confirmation, biochemical, fluorescence intensity, uHTS hits (AID 602372); format: functional; conditions: read-out: IC50_Mean
[9] = target: Tyrosine-protein phosphatase non-receptor type 11 (Homo sapiens, UniProt Q06124); experiment: SHP2 phosphatase inhibition, dose response, selectivity assay for STEP inhibitor project, biochemical (AID 602367); format: functional; conditions: read-out: IC50_Mean
Caspase-3 = target: T5, Caspase-3 (Homo sapiens, UniProt P42574); experiment: Dose-response confirmation of uHTS inhibitor hits of Sentrin-Specific Protease 8 in a Caspase-3 Fluorescence assay.; format: functional
T5 sequence (P42574 whole entry): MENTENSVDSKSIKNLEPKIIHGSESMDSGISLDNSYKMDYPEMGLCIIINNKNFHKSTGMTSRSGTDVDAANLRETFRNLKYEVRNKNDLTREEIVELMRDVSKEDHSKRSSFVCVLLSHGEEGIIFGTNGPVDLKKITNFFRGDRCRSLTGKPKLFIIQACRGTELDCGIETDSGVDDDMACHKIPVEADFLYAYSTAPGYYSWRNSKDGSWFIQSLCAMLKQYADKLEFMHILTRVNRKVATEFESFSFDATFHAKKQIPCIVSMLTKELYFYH

[10] = target: T6, Sentrin-specific protease 8 (Homo sapiens, UniProt Q96LD8); format: functional
T6 sequence (Q96LD8 whole entry): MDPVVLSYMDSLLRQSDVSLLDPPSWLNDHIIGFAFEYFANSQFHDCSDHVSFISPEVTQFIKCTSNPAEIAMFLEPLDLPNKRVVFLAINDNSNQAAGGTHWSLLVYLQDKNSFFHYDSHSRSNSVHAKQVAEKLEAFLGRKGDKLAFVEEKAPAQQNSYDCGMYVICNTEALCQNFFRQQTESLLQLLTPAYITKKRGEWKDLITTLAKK

[11] = target: T6, Sentrin-specific protease 8; format: functional; remark: listed apart in the source
[12] = target: Potassium voltage-gated channel subfamily KQT member 2 (Rattus norvegicus, UniProt O88943); experiment: KCNQ2 potassium channel inhibitors, dose response, cell-based, automated electrophysiology, set II, rat KCNQ2 (AID 588637); format: functional
[13] = miR-122 activators in hepatoma reporter cells, dose response, cell-based, Huh7 psiCHECK-miR122, Renilla luciferase, cherry-picked (AID 651956); format: functional;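 also: huh7 hepatoma cells stably carrying a psiCHECK-2 miR-122 sensor plasmid; renilla luciferase signal reporting endogenous miR-122 activity after 48 h compound exposure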

T1 sequence (Q9P0U3 whole entry, the tested form may be a part): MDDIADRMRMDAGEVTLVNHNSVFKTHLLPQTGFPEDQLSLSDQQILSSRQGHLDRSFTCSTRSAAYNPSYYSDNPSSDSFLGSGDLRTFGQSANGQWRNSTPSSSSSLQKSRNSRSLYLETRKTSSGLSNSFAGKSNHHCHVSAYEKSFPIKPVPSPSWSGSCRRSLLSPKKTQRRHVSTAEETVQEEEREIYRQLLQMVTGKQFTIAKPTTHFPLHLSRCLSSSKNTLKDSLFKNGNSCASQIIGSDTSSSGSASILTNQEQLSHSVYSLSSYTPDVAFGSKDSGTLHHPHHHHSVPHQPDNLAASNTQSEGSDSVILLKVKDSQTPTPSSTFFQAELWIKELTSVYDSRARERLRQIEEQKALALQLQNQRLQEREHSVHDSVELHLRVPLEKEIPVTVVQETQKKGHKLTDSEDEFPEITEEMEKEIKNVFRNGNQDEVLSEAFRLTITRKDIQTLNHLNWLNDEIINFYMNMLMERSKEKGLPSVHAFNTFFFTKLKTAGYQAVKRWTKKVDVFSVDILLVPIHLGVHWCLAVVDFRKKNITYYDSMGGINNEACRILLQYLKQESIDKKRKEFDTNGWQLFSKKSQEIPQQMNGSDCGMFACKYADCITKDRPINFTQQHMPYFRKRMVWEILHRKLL
Photoreceptor-specific nuclear receptor, sequence (Q9Y5X4 whole entry, the tested form may be a part): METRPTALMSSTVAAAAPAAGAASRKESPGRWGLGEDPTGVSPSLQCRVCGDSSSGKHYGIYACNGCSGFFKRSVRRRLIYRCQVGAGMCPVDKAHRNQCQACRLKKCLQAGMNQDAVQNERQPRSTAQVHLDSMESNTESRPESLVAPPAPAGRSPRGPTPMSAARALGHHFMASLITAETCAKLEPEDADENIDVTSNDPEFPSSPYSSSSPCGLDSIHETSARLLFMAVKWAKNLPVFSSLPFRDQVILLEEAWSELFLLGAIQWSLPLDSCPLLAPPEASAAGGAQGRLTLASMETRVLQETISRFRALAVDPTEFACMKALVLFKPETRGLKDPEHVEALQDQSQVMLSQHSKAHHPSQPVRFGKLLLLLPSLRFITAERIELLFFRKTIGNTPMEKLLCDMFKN
Dual specificity protein phosphatase 3, sequence (P51452 whole entry): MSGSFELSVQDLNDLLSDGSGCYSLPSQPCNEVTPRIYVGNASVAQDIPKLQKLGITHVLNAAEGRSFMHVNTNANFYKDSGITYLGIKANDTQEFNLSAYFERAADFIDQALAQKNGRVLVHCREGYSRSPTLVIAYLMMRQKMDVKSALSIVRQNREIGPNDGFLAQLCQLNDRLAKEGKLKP
Tyrosine-protein phosphatase non-receptor type 5, sequence (P54829 whole entry): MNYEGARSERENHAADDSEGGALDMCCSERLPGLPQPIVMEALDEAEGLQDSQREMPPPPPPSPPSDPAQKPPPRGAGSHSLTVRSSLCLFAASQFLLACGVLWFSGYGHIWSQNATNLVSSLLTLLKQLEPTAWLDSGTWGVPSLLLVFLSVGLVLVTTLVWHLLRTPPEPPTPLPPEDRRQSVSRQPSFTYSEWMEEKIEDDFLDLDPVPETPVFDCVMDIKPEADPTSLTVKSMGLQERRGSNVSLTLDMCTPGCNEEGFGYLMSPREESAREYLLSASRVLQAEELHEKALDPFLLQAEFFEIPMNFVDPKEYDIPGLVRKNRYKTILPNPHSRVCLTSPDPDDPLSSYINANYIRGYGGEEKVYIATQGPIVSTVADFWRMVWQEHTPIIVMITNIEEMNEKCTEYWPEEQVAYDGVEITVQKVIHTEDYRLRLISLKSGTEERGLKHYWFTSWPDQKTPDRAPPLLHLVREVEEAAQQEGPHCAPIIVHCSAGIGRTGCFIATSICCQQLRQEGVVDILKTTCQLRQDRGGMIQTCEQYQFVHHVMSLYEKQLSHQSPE
Potassium voltage-gated channel subfamily KQT member 2, sequence (O88943 whole entry): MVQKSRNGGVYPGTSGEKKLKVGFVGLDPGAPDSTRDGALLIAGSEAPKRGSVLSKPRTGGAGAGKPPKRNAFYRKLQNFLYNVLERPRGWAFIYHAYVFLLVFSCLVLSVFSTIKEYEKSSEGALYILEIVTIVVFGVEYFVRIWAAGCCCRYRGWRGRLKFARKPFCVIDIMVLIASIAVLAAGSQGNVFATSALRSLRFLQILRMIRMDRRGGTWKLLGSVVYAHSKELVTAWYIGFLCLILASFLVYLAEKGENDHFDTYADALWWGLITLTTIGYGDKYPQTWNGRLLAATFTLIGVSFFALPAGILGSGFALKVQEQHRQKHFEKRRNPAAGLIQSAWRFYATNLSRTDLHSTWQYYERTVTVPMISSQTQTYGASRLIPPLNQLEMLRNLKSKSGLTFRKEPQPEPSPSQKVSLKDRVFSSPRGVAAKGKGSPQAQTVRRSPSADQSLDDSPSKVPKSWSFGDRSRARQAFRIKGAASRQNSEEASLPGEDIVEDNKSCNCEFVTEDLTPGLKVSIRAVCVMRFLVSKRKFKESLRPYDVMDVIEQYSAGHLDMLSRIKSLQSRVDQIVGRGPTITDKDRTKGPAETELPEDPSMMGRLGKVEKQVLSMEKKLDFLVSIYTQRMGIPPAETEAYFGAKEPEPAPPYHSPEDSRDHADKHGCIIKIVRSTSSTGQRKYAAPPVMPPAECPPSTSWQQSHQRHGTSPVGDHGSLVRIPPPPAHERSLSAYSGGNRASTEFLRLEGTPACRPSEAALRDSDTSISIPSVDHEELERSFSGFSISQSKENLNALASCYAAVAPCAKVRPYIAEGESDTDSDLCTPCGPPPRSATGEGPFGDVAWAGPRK

IC50 [1]: 11.7 µM (inactive)
Structure (SMILES): Cc1noc(C)c1S(=O)(=O)Nc1ccc(C(=O)N2CCN(c3ccc(Cl)cc3)CC2)cc1

IC50 [2]: 16.7 µM (active)
IC50 [3]: 21.5 µM (inactive)
EC50 [4]: > 300 µM (not active)
EC50 [5]: > 300 µM (not active)
Structure (SMILES): CC(C)CNC(=O)c1ccc(C2SCC(=O)N2Cc2ccccc2)cc1 (centres undefined)

IC50 [6]: 45.6 µM (inactive)
IC50 [7]: 0.937 µM (active)
IC50 [8]: 23.6 µM (inactive)
IC50 [9]: 3.25 µM (active)
Structure (SMILES): CN(C)c1ccc(C(=S)N2CCN(Cc3ccccc3)CC2)cc1

IC50 (Caspase-3): 29.2 µM (active)
Structure (SMILES): COc1ccc2c(c1)Cc1sc(NC(=O)c3cccnc3)nc1-2
IC50 [10]: 3.66 µM (active)
IC50 [11]: 7.97 µM (active)

IC50 [12]: 0.824 µM (active)
Structure (SMILES): CCN(CC)S(=O)(=O)c1ccc(N2CCOCC2)c(NC(=S)NC(=O)c2ccco2)c1

Structure (SMILES): CCCC(NS(=O)(=O)c1ccc(Br)cc1)C(=O)O (centres undefined)
AC50 [13]: 1.68 µM (active)
